Results taken from patent US20160193139A1, “Composition having A. paniculata for wound healing and skin whitening, and method by using the same” (National Dong Hua University, priority 2013, published 2016).

What was measured:
HaCaT cells = test: MTT cell viability assay, HaCaT cells; format: cell-based, human; settings: FIG. 1B
Method: (§1) HaCaT cell is an immortal human keratinocyte line (CLS order no. 300493) and A375 cell is a human melanoma cell line (ATCC, CRL-1619) that isolated from malignant melanoma. Both cells were cultured in Dulbecco's Modified Eagle Medium (DMEM; Gibco, Carlsbad, Calif., USA) with 10% fetal bovine serum (FBS; Gibco), and 1% Penicillin/Streptomycin (Biowest) in culture incubator at 37° C., 5% CO2. CCD-966SK is a human skin fibroblast (ATCC, CRL-1881) cell line that taken from the breast of patient with invasive ductal carcinoma and cultured in Minimum Essential Medium (MEM; Gibco) with 10% FBS, 1% sodium pyruvate (Biowest), and 1% Penicillin/Streptomycin (Biowest) in culture incubator at 37° C., 5% CO2.
(§2) The 3-(4,5-dimethylthiazol-2-yl)-2,5-diphenyltetrazolium bromide (MTT, Invitrogen) is a colorimetric based assay that is performed to analyze the proliferation of cells. Cells (1×10^4 cells) were seeded in 96 well plates for overnight. […] The media was removed, and formazan was solubilized by adding 100 of DMSO (Sigma-Aldrich) and absorbance was measured at 570 nm using a microplate reader (Thermo Labsystems, Opsys MR, USA). […]

melanin in A375 cells = test: Melanin assay in A375 cells; format: cell-based, human; settings: after normalization with cell number, dose-dependent manner, FIG. 5B
Method: Cells (1×10^5 cells) were seeded in 12 well plates and treated with drugs for 24 or 48 hr. Plates were washed with PBS and added 0.5 ml of 1N NaOH, and heating at 100° C. for 1 h. Plates were then centrifuged at 12,000 rpm for 30 min at 25° C. Supernatants (100 μl/well) were added into 96 well plates, and the secretion of melanin was determined by measuring the absorbance at 405 nm using microplate reader (Thermo Labsystems).

A375 cell = test: MTT cell viability assay, A375 cells; format: cell-based, human; settings: dose-dependent manner; FIG. 5A
Method: as §1, §2

[1] = tested on: burn wound on back skin of C57BL/6 mice; test: Animal skin injury (burn wound) model, wound healing; format: in vivo; settings: for Wound Area: cream spread on burned site once/day, extract and Andrographolide 0.1 mg/ml, Silver sulfadiazine 1%, mean ± SD
Method: These mice were used between 8 to 10 weeks of age and age-matched for each experiment.
A cream matrix containing 1 g polyethylene glycol/poly propylene glycol/poly ethylene glycol (PEG-PPG-PEG; MW=5800; Sigma), 2 ml polyethylene glycol-400 (PEG-400; FCW®, Taiwan), and 3 ml polyethylene glycol-1500 (PEG-1500; FCW®, Taiwan) was formed. The solution of A. paniculata extract and Andrographolide was added into cream matrix and completely mixed (for both of them, the final concentration is 0.1 mg/ml).
Mice were anesthetized by pentobarbital (50 mg/kg) and removed the hair of back. A stainless steel cylinder tool (1 cm in diameter, 0.785 cm^2 cm in area) was heated for 20 sec and attached on back skin of mice for 2 sec. […] The wound area was measured on days 1, 3, 5, 7, 9, 11, 13, 15, 17, 19, and 21 after drug treatment.

CCD-966SK cells = test: MTT cell viability assay, CCD-966SK cells; format: cell-based, human; settings: 50 μg/ml; 24 and 48 h; FIG. 2B
Method: as §1, §2

SMILES: C=C1CC[C@@H]2[C@](C)(CO)[C@H](O)CC[C@@]2(C)[C@@H]1C/C=C1/C(=O)OC[C@H]1O [Andrographolide]
- cell viability of HaCaT cells (HaCaT cells; 50 μg/ml, 24 and 48 h): significantly decreased
- cell viability of HaCaT cells (HaCaT cells; low doses (1, 5, and 10 μg/ml), 24 h): significantly enhanced
- expression level of melanin (melanin in A375 cells): significantly inhibited
- cell viability of A375 cell (A375 cell): significantly inhibited
- wound healing rate compared with silver sulfadiazine-treated mice ([1]; 0.1 mg/ml cream once/day vs Silver sulfadiazine 1%, FIG. 3): two days earlier
- Wound Area ([1]; DAY 1): 133.57 ± 28.46 mm^2
- Wound Area ([1]; DAY 3): 111.94 ± 24.09 mm^2
- Wound Area ([1]; DAY 5): 85.15 ± 13.35 mm^2
- Wound Area ([1]; DAY 7): 48.43 ± 5.91 mm^2
- Wound Area ([1]; DAY 9): 28.22 ± 9.40 mm^2
- Wound Area ([1]; DAY 11): 16.46 ± 5.43 mm^2
- Wound Area ([1]; DAY 13): 11.62 ± 4.49 mm^2
- Wound Area ([1]; DAY 15): 6.94 ± 5.04 mm^2
- Wound Area ([1]; DAY 17): 4.12 ± 3.96 mm^2
- Wound Area ([1]; DAY 19): 0 mm^2
- Wound Area ([1]; DAY 21): 0 mm^2
- cell viability of CCD-966SK cells (CCD-966SK cells): significantly decreased
